# Test results: patent publication US20260234464A1, “POLYALKYL PHOSPHONATED POLYOL ETHER BASED SCALE INHIBITORS” (ChampionX LLC, priority 2023, published 2026)
# Assay: static efficiency test of sulfate scale inhibition
# Conditions: 90° C., one hour after mixing anion and cation brine 1:1 (v/v), Ba2+ in solution; for inhibition efficiency, Brine A: SI dosage 1 ppm; for inhibition efficiency, Brine B: SI dosage 7.5 ppm; for inhibition efficiency, Brine C: SI dosage 5 ppm; for inhibition efficiency, Brine D: SI dosage 30 ppm
# Experimental: Anion brine and cation brines A, B, C, and D were prepared according to Table 1. The preheated anion brine and cation brine were mixed at 1:1 (v/v) ratio to achieve the targeted concentration. Briefly. In the blank test, no scale inhibitor (SI) was added, but a known amount of various SI was added to other test bottles to understand the performance of various SIs. In the scale inhibition tests, inhibition performance or inhibition efficiency at 90° C., especially for barite inhibition at one hour after mixing of anion and cation brine with and without presence of SI was determined using the following equation:
# [formula] • At where: • Ca is the concentration (mg/L) of Ba^2+ in solution after the one-hour test with scale inhibitor. • Cb is the concentration (mg/L) of Ba^2+ in solution in the blank after the one-hour test (without scale inhibitor). • Co is the concentration (mg/L) of the resulting Ba^2+ in synthetic water.
# The SI dosages in Brine A, B, C and […] was 1, 7.5, 5, and 30 ppm, respectively.
SMILES,"inhibition efficiency, Brine A [%]","inhibition efficiency, Brine B [%]","inhibition efficiency, Brine C [%]","inhibition efficiency, Brine D [%]"
O=P(O)(O)CN(CC(O)COCC(CO)OCC(O)CN(CP(=O)(O)O)CP(=O)(O)O)CP(=O)(O)O (stereo not shown) [Example 5],42,86,86,42
"O=P(O)(O)CN(CCO)CC(O)COCC(O)C(OCC(O)CN(CCO)CP(=O)(O)O)C(O)C(COCC(O)CN(CCO)CP(=O)(O)O)OCC(O)CN(CCO)CP(=O)(O)O (stereo not shown) [Example 3, 10,12-bis(2-hydroxy-3-((2-hydroxyethyl)(phosphonomethyl)amino)propoxy)-3,18-bis(phosphonomethyl)-7,14-dioxa-3,18-diazaicosane-1,5,9,11,16,20-hexaol]",48,36,71,5
"O=P(O)(O)CN(CCN(CP(=O)(O)O)CP(=O)(O)O)CCN(CP(=O)(O)O)CP(=O)(O)O [DTPMP, diethylenetriamine penta(methylene phosphonic acid), reference compound]",94,77,100,24
"O=P(O)(O)CN(CCNCC(O)COCC(O)C(OCC(O)CNCCN(CP(=O)(O)O)CP(=O)(O)O)C(O)C(COCC(O)CNCCN(CP(=O)(O)O)CP(=O)(O)O)OCC(O)CNCCN(CP(=O)(O)O)CP(=O)(O)O)CP(=O)(O)O (stereo not shown) [Example 2, 12,14-bis(3-((2-(bis(phosphonomethyl)amino)ethyl)amino)-2-hydroxypropoxy)-2,23-(bis(phosphonomethyl)amino)-9,16-dioxa-2,5,20,23-tetraazatetracosane-7,11,13,18-tetraol]",100,100,84,83
"O=P(O)(O)CN(CC(O)COCC(O)C(OCC(O)CN(CP(=O)(O)O)CP(=O)(O)O)C(O)C(COCC(O)CN(CP(=O)(O)O)CP(=O)(O)O)OCC(O)CN(CP(=O)(O)O)CP(=O)(O)O)CP(=O)(O)O (stereo not shown) [Example 1, 1,3,5,6-Tetrakis{3-[bis(phosphonomethyl)amino]-2-hydroxypropoxy}-2,4-hexandiol]",57,88,67,42
"O=P(O)(O)CN(CC(O)COCCCCOCC(O)CN(CP(=O)(O)O)CP(=O)(O)O)CP(=O)(O)O (stereo not shown) [Example 6, 3,3-(butane-1,4-diylbis(oxy))bis(1-(bis(phosphonomethyl))propan-2-ol)]",47,63,98,6
CN(CC(O)COCC(O)C(OCC(O)CN(C)CP(=O)(O)O)C(O)C(COCC(O)CN(C)CP(=O)(O)O)OCC(O)CN(C)CP(=O)(O)O)CP(=O)(O)O (stereo not shown) [Example 4],23,7,5,2
